Consider 26 molecules from patent US20190134005A1 (BioMarin Pharmaceutical Inc., priority 2016, published 2019).

This test deals with T1, human CGT (Homo sapiens, UniProt Q16880).
T1 sequence (Q16880 21-541): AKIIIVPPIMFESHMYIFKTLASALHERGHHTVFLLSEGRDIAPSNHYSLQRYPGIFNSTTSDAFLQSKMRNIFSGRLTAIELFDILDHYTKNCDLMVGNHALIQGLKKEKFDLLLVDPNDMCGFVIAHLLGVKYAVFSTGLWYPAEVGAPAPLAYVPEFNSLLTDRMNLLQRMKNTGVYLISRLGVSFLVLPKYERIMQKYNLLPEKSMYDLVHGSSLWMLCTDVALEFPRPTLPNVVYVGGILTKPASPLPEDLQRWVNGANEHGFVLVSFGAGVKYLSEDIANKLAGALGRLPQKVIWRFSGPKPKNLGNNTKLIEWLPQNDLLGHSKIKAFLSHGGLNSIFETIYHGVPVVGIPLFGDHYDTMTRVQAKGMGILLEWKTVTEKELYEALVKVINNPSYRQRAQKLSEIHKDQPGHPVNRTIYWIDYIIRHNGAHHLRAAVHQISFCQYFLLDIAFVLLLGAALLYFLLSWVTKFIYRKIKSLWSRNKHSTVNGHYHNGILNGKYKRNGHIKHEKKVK
Nature of the test: CGT Enzyme Assay (Biological Example 2, RapidFire/MS/MS method with 0.01% Tween 80 added). It counts as biochemical. As to conditions: enzymatic assay, CHO/CGT lysate. As for the experimental part: Full-length human CGT cDNA was cloned into the BamH1/Xho1 site of pcDNA3.1 (+) mammalian expression vector (V90-20, Invitrogen, Carlsbad, Calif.) and the plasmid was transfected into Chinese hamster ovary (CHO) cells. Lysate was prepared using M-PER (Mammalian Protein Extraction Reagent, ThermoFisher Scientific, Grand Island, N.Y.) in the presence of a protease inhibitor cocktail (P8340, Sigma, Saint Louis, Mo.). Each 100 mm dish (100% confluent, approximately 1×10^7 cells) was lysed with 250 μL of M-PER containing protease inhibitors. Protein concentration was determined using a Pierce BCA protein assay kit (ThermoFisher Scientific). […] The final concentration of DMSO was 0.5% in both compound-treated and mock-treated samples. Each individual reaction was diluted with 80 μL of methanol:acetronitrile (1:3) containing 5 μM N-docdecanoyl-NBD-galactosylceramide (internal standard) to stop the reaction. 200 μL H2O:acetonitile (1:1) was added to precipitate the protein. After sufficient mixing, the plates were centrifuged at 2469 g for 38 minutes, 200 μl of supernatant was transferred to a LC-MS 96-deep well plate and a second spin was performed at 2469 g for 10 minutes. The final supernatant was injected in triplicate for RapidFire/MS/MS analysis.
The quantitative analysis of C6-NBD-dihydro-ceramide and C6-NBD-dihydro-galactosylceramide was performed on a Rapid Fire 360 high-throughput mass spectrometry system (Agilent Technologies, Palo Alto, Calif.) coupled with a API4000^+ triple quadrupole mass spectrometer (Applied Biosystems, Concord, Ontario, Canada). RapidFire software packages, including RapidFire Control panel, RapidFire UI and RapidFire Integrator (Agilent Technologies), were used to control the RapidFire instrument and to process data. Analyst 1.6.2 software packages (Applied Biosystems) were used to control the MS system and acquire MS data. 10 μL of sample was loaded on a micro-scale C4 solid-phase extraction (SPE) cartridge (Agilent Technologies) and salts were removed using water supplemented with 0.1% formic acid at the flow rate of 1.5 mL/min for 3 sec. C6-NBD-dihydro-ceramide and C6-NBD-dihydro-galactosylceramide were co-eluted into the mass spectrometer using acetonitrile containing 0.1% formic acid at the flow rate of 1.0 mL/min for 3 sec. The total cycle time of one injection was 8 secs. The MS/MS detection was performed in ESI negative mode.
The C6-NBD-dihydro-galactosylceramide reading was normalized first by dividing the peak area of C6-NBD-dihydro-galactosylceramide by the peak area of the internal standard, N-docdecanoyl-NBD-galactosylceramide.
As a reminder, the IC50 is the concentration at which inhibition is half-maximal. With `C[C@H]1[C@H](c2cccc(OC(F)(F)F)c2)N(c2ccc(Br)cc2)C(=O)N1c1ccc(Br)cc1` [Example 11-2, (4S,5S)-1,3-bis(4-bromophenyl)-4-methyl-5-(3-(trifluoromethoxy)phenyl)imidazolidin-2-one], the IC50 was under 1 µM.
As to `CC1(C)[C@H](c2cccc(OC(F)(F)F)c2)N(c2ccc(Cl)cc2)C(=O)N1c1ccc(Cl)cc1` [Example 7-2, (S)-1,3-bis(4-chlorophenyl)-4,4-dimethyl-5-(3-(trifluoromethoxy)phenyl)imidazolidin-2-one], the IC50 was under 1 µM.
In the case of `CC1(C)[C@@H](c2cccc(C#N)c2)N(c2ccc(Cl)cc2)C(=O)N1c1ccc(Cl)cc1` [Example 10-1, (R)-3-(1,3-bis(4-chlorophenyl)-5,5-dimethyl-2-oxoimidazolidin-4-yl)benzonitrile] it was 10 to 30 µM; in that of `COC[C@]1(C)[C@H](c2cccc(OC(F)(F)F)c2)N(c2ccc(Cl)cc2)C(=O)N1c1ccc(Cl)cc1` [Example 37-2, (4S,5S)-1,3-bis(4-chlorophenyl)-4-(methoxymethyl)-4-methyl-5-(3-(trifluoromethoxy)phenyl)imidazolidin-2-one], under 1 µM.
Turning to `CC1(C)[C@@H](c2cccc(Cl)c2)N(c2ccc(Cl)cc2)C(=O)N1c1ccc(Cl)cc1` [Example 8-1, (R)-5-(3-chlorophenyl)-1,3-bis(4-chlorophenyl)-4,4-dimethylimidazolidin-2-one], the IC50 lay in the range of 10 to 30 µM.
Molecule `C[C@]1(C(F)(F)F)[C@@H](c2cccc(OC(F)(F)F)c2)N(c2ccc(Br)cc2)C(=O)N1c1ccc(C#N)cc1` [Example 44-2, 4-((4R,5R)-3-(4-bromophenyl)-5-methyl-2-oxo-4-(3-(trifluoromethoxy)phenyl)-5-(trifluoromethyl)imidazolidin-1-yl)benzonitrile] yielded an IC50 of under 1 µM.
As for `CCC[C@@]1(C)[C@H](c2cccc(OC(F)(F)F)c2)N(c2ccc(Cl)cc2)C(=O)N1c1ccc(Cl)cc1` [Example 22-5, (4S,5S)-1,3-bis(4-chlorophenyl)-4-methyl-4-propyl-5-(3-(trifluoromethoxy)phenyl)imidazolidin-2-one], the figure is 10 to 30 µM; as for `COC[C@@]1(C)[C@@H](c2cccc(C#N)c2)N(c2ccc(Cl)cc2)C(=O)N1c1ccc(Cl)cc1` [Example 38-1, 3-((4R,5R)-1,3-bis(4-chlorophenyl)-5-(methoxymethyl)-5-methyl-2-oxoimidazolidin-4-yl)benzonitrile], 1 to 10 µM; as for `CC1(C)[C@@H](c2cccc(OC(F)(F)F)c2)N(c2ccccc2)C(=O)N1c1ccccc1` [Example 26-1, (R)-4,4-dimethyl-1,3-diphenyl-5-(3-(trifluoromethoxy)phenyl)imidazolidin-2-one], 10 to 30 µM.
The molecule `CC[C@]1(C)[C@@H](c2cccc(OC(F)(F)F)c2)N(c2ccc(C#N)cc2)C(=O)N1c1ccc(C#N)cc1` [Example 51-3, 4,4′-((4R,5R)-4-ethyl-4-methyl-2-oxo-5-(3-(trifluoromethoxy)phenyl)imidazolidine-1,3-diyl)dibenzonitrile] had an IC50 of 1 to 10 µM.
`CC1(C)[C@@H](c2cccc(OC(F)(F)F)c2)N(c2ccc(Cl)cc2)C(=O)N1c1ccc(C#N)cc1` [Example 41-1, (R)-4-(3-(4-chlorophenyl)-5,5-dimethyl-2-oxo-4-(3-(trifluoromethoxy)phenyl)imidazolidin-1-yl)benzonitrile] showed an IC50 of 10 to 30 µM.
Regarding `CC1(C)[C@H](c2cccc(OC(F)(F)F)c2)N(c2ccc(Cl)cc2)C(=O)N1c1ccc(C#N)cc1` [Example 41-2, (S)-4-(3-(4-chlorophenyl)-5,5-dimethyl-2-oxo-4-(3-(trifluoromethoxy)phenyl)imidazolidin-1-yl)benzonitrile], the IC50 is under 1 µM.
As to `Cc1ccc(N2C(=O)N(c3ccc(C#N)cc3)[C@@H](c3cccc(OC(F)(F)F)c3)C2(C)C)cc1` [Example 50-2, (S)-4-(4,4-dimethyl-2-oxo-3-(p-tolyl)-5-(3-(trifluoromethoxy)phenyl)imidazolidin-1-yl)benzonitrile], the IC50 was in the range of 10 to 30 µM.
In the case of `Cc1ccc(N2C(=O)N(c3ccc(Cl)cc3)[C@@H](c3cccc(OC(F)(F)F)c3)C23COC3)cc1` [Example 49-2] it was under 1 µM.
`Cc1ccc(N2C(=O)N(c3ccc(C#N)cc3)C3(COC3)[C@H]2c2cccc(OC(F)(F)F)c2)cc1` [Example 43-1, (R)-4-(6-oxo-7-(p-tolyl)-8-(3-(trifluoromethoxy)phenyl)-2-oxa-5,7-diazaspiro[3.4]octan-5-yl)benzonitrile] displayed an IC50 of 1 to 10 µM.
`O=C1N(c2ccc(Cl)cc2)[C@H]2CCC[C@@]2(c2cccc(OC(F)F)c2)N1c1ccc(Cl)cc1` [Example 23-1, (3aS,6aS)-1,3-bis(4-chlorophenyl)-3a-(3-(difluoromethoxy)phenyl)hexahydrocyclopenta[d]imidazol-2(1H)-one] showed an IC50 of 10 to 30 µM.
In the case of `CC[C@@]1(C)[C@@H](c2cccc(OC(F)(F)F)c2)N(c2ccc(Cl)cc2)C(=O)N1c1ccc(Cl)cc1` [Example 19-4, (4S,5R)-1,3-bis(4-chlorophenyl)-4-ethyl-4-methyl-5-(3-(trifluoromethoxy)phenyl)imidazolidin-2-one] it was 1 to 10 µM; in that of `CC1(C)[C@@H](c2cccc(OC(F)(F)F)c2)N(c2cccc(Cl)c2)C(=O)N1c1cccc(Cl)c1` [Example 28-1, (R)-1,3-bis(3-chlorophenyl)-4,4-dimethyl-5-(3-(trifluoromethoxy)phenyl)imidazolidin-2-one], 10 to 30 µM.
In turn, `CC1(C)C(c2cccc(C(F)(F)F)c2)N(c2ccc(Cl)cc2)C(=O)N1c1ccc(Cl)cc1` (centres unmarked) [Example 6] had an IC50 of under 1 µM.
In the case of `N#Cc1cccc(C23CCCCC2N(c2ccc(Cl)cc2)C(=O)N3c2ccc(Cl)cc2)c1` (centres unmarked) [Example 14], the IC50 was under 1 µM.
In the case of `CC[C@]1(C)[C@@H](c2cccc(C#N)c2)N(c2ccc(Cl)cc2)C(=O)N1c1ccc(Cl)cc1` [Example 34-2, 3-((4R,5R)-1,3-bis(4-chlorophenyl)-5-ethyl-5-methyl-2-oxoimidazolidin-4-yl)benzonitrile] it was 1 to 10 µM; in that of `Cc1ccc(N2C(=O)N(c3ccc(C)cc3)C3(CCCC3)[C@@H]2c2cccc(OC(F)(F)F)c2)cc1` [Example 35-2, (S)-1,3-di-p-tolyl-4-(3-(trifluoromethoxy)phenyl)-1,3-diazaspiro[4.4]nonan-2-one], under 1 µM; in that of `CCC[C@@]1(C)[C@H](c2cccc(OC(F)(F)F)c2)N(c2ccc(C#N)cc2)C(=O)N1c1ccc(C#N)cc1` [Example 52-5, 4,4′-((4S,5S)-4-methyl-2-oxo-4-propyl-5-(3-(trifluoromethoxy)phenyl)imidazolidine-1,3-diyl)dibenzonitrile], under 1 µM.
The molecule `C[C@@H]1[C@@H](c2cccc(OC(F)(F)F)c2)N(c2ccc(Br)cc2)C(=O)N1c1ccc(Br)cc1` [Example 11-1, (4R,5R)-1,3-bis(4-bromophenyl)-4-methyl-5-(3-(trifluoromethoxy)phenyl)imidazolidin-2-one] yielded an IC50 of 1 to 10 µM.
On to `N#Cc1ccc(N2C(=O)N(c3ccc(Cl)cc3)C3(COC3)[C@H]2c2cccc(OC(F)(F)F)c2)cc1` [Example 47-1, (R)-4-(5-(4-chlorophenyl)-6-oxo-8-(3-(trifluoromethoxy)phenyl)-2-oxa-5,7-diazaspiro[3.4]octan-7-yl)benzonitrile], for which the IC50 was in the range of 10 to 30 µM.
For `C[C@@H]1[C@@H](c2cccc(OC(F)(F)F)c2)N(c2ccc(Cl)cc2)C(=O)N1c1ccc(Cl)cc1` [Example 4-2, (4R,5R)-1,3-bis(4-chlorophenyl)-4-methyl-5-(3-(trifluoromethoxy)phenyl)imidazolidin-2-one], the IC50 lay in the range of 10 to 30 µM.
